Source: patent publication US10308620B2, “Muscarinic M1 receptor positive allosteric modulators” (SUVEN LIFE SCIENCES LIMITED, priority 2015, dated 2019)
Where a name gives a salt, the structure may show the parent alone.

Columns and labels:
[1] = target: recombinant human Muscarinic M1 receptor (Homo sapiens (Human), UniProt P11229); assay: Allosteric potency EC50, CHO cells with pCRE-Luc reporter, in presence of EC20 of acetylcholine; type: cell-based; details: 4 hours
Procedure: Determination of Allosteric Potency EC50 Values for Muscarinic M1 Receptor:
A stable CHO cell line expressing recombinant human Muscarinic M1 receptor and pCRE-Luc reporter system was used for cell-based assay. The assay offers a non-radioactive based approach to determine binding of a compound to GPCRs. In this specific assay, the level of intracellular cyclic AMP which is modulated by activation or inhibition of the receptor is measured. The recombinant cells harbor luciferase reporter gene under the control of cAMP response element.
The above cells were grown in 96 well clear bottom white plates in Hams F12 medium containing 10% fetal bovine serum (FBS). Prior to the addition of compounds or standard agonist, cells were serum starved overnight. Increasing concentrations of test compounds were added along with EC20 of acetylcholine in OptiMEM medium to the cells. The incubation was continued at 37° C. in CO2 incubator for 4 hours. Medium was removed and cells were washed with phosphate buffered saline. The cells were lysed and luciferase activity was measured in a Luminometer. Luminescence units were plotted against the compound concentrations using Graphpad software. EC50 values of the compounds were defined as the concentration required in stimulating the luciferase activity by 50% in presence of EC20 of acetylcholine.

[2] = Rodent pharmacokinetic study; type: in vivo, rat; details: male Wistar rats; for clearance / half-life / Vd / Cmax / Tmax / bioavailability: rat, plasma; for Vd: read-out: Vz; for bioavailability: 3 mg/kg oral vs 1 mg/kg i.v.
Procedure: Rodent Pharmacokinetic Study
Male Wistar rats (260±50 grams) were used as experimental animals. Animals were housed individually in polypropylene cage. Two days prior to study, male Wistar rats were anesthetized with isoflurane for surgical placement of jugular vein catheter. Rats were randomly divided for oral (3 mg/kg) and intravenous (1 mg/kg) dosing (n=3/group) and fasted overnight before oral dosing (p.o.). However, rats allocated to intravenous (i.v.) dosing food and water was provided ad libitum.
At pre-determined point, blood was collected through jugular vein and replenished with an equivalent volume of normal saline. Collected blood was transferred into a labeled eppendorf tube containing 10 μL of heparin as an anticoagulant. Typically blood samples were collected at following time points: 0.08, 0.25, 0.5, 1, 2, 4, 6, 8, and 24 hours post dose. Blood was centrifuged at 4000 rpm for 10 minutes. Plasma was separated and stored frozen at −80° C. until analysis. The concentrations of the test compounds were quantified in plasma by qualified LC-MS/MS method using suitable extraction technique. The test compounds were quantified in the calibration range around 1-1000 ng/mL in plasma. Study samples were analyzed using calibration samples in the batch and quality control samples spread across the batch.
Pharmacokinetic parameters Cmax, Tmax, AUCt, T1/2, clearance, Vz and bioavailability were calculated by non-compartmental model using standard non-compartmental model by using Phoenix WinNonlin 6.0.2 or 6.0.3 version Software package.

Sequence of recombinant human Muscarinic M1 receptor (P11229 whole entry): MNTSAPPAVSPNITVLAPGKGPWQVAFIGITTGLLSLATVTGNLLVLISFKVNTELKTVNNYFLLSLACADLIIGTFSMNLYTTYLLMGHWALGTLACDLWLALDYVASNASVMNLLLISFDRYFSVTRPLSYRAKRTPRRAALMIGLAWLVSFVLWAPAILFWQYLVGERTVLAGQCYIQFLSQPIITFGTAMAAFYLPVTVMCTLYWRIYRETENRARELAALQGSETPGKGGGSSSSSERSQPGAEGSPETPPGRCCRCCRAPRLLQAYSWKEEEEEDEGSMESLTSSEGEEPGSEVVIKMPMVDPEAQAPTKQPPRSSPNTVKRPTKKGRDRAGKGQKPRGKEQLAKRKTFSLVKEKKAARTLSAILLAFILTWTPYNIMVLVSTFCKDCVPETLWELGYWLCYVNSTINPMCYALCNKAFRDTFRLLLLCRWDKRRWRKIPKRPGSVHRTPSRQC

| Compound | EC50 [1] | other results |
| --- | --- | --- |
| O=C(N[C@H]1CCCC[C@@H]1O)C1=CN(Cc2ccccn2)c2ccccc2S1 [Example 92, N-(cis-1S,2S-2-Hydroxycyclohexyl)-4-{pyridin-2-ylmethyl}-4H-benzo[1,4]thiazine-2-carboxamide] | 1470 nM | AUC0-t ([2]; 1 mg/kg i.v. (bolus)): 262 ± 50 ng·h/mL; AUC0-t ([2]; 3 mg/kg oral (gavage)): 255 ± 32 ng·h/mL; clearance ([2]; iv, 1 mg/kg i.v. (bolus)): 64 ± 11 mL/min/kg; half-life ([2]; iv, 1 mg/kg i.v. (bolus)): 48 ± 12 min; Vd ([2]; iv, 1 mg/kg i.v. (bolus)): 4.2 ± 0.7 L/kg; Cmax ([2]; 3 mg/kg oral (gavage)): 195 ± 22 ng/mL; Tmax ([2]; 3 mg/kg oral (gavage)): 0.33 ± 0.14 h; half-life ([2]; 3 mg/kg oral (gavage)): 102 ± 60 min; bioavailability [2]: 32 ± 4% |
| O=C(N[C@H]1CCCC[C@@H]1O)C1=CN(Cc2cccc(F)c2)c2cccnc2O1 [Example 36, N-(cis-1S,2S-2-Hydroxycyclohexyl)-1-(3-fluorobenzyl)-1H-pyrido[2,3-b][1,4]oxazine-3-carboxamide] | 1540 nM |  |
| O=C(N[C@H]1CCCC[C@@H]1O)C1=CN(Cc2ccccn2)c2ccccc2[S+]1[O-] (stereo partly drawn) [Example 96, N-(cis-1 S, 2S-2-Hydroxycyclohexyl)-4-{pyridin-2-ylmethyl}-1-oxo-4H-benzo[1,4]thiazine-2-carboxamide] | 2160 nM |  |
| O=C(N[C@H]1CCCC[C@@H]1O)C1=CN(Cc2ccccc2C(F)(F)F)c2ccccc2O1 [Example 37, N-(cis-1S, 2S-2-Hydroxycyclohexyl)-4-(2-trifluoromethylbenzyl)-4H-benzo[1,4]oxazine-2-carboxamide] | 534 nM |  |
| CC(C)(O)CNC(=O)C1=CN(Cc2ccc(F)cc2)c2ccccc2O1 [Example 14, N-(2-Hydroxy-2-methylpropyl)-4-(4-fluorobenzyl)-4H-benzo[1,4]oxazine-2-carboxamide] | 1360 nM |  |
| O=C(N[C@@H]1CCC[C@H]1O)C1=CN(Cc2ccccc2F)c2ccccc2O1 [Example 40, N-(trans-1R,2R-2-Hydroxycyclopentyl)-4-(2-fluorobenzyl)-4H-benzo[1,4]oxazine-2-carboxamide] | 1530 nM |  |
| O=C(N[C@H]1CCCC[C@@H]1O)C1=CN(Cc2ccncc2F)c2ccccc2O1 [Example 34, N-(cis-1S,2S-2-Hydroxycyclohexyl)-4-(3-fluoropyridin-4-ylmethyl)-4H-benzo[1,4]oxazine-2-carboxamide] | 1520 nM |  |
| O=C(N[C@H]1CCCC[C@@H]1O)C1=CN(Cc2ccc(F)cc2)c2ncccc2O1 [Example 35, N-(cis-1S,2S-2-Hydroxycyclohexyl)-4-(4-fluorobenzyl)-4H-pyrido[3,2-b][1,4]oxazine-2-carboxamide] | 1580 nM |  |
| O=C(N[C@H]1CCCC[C@@H]1O)C1=CN(Cc2ccccc2Cl)c2ccccc2O1 [Example 41, N-(cis-1S, 2S-2-Hydroxycyclohexyl)-4-(2-chlorobenzyl)-4H-benzo[1,4]oxazine-2-carboxamide] | 168 nM |  |
| O=C(N[C@@H]1CCC[C@H]1O)C1=CN(Cc2cccc(F)c2F)c2ccccc2O1 [Example 39, N-(trans-1R,2R-2-Hydroxycyclopentyl)-4-(2,3-difluorobenzyl)-4H-benzo[1,4]oxazine-2-carboxamide] | 1550 nM |  |
| CC(C)C(CO)NC(=O)C1=CN(Cc2ccccc2F)c2cccc(F)c2O1 (stereo not shown) [Example 47, N-(1-Hydroxymethyl-2-methylpropyl)-4-(2-fluorobenzyl)-8-fluoro-4H-benzo[1,4]oxazine-2-carboxamide] | 1320 nM |  |
| O=C(NC1CCNCC1F)C1=CN(Cc2ccccc2F)c2cccc(F)c2O1 (stereo not shown) [Example 73, N-(3-Fluoropiperidin-4-yl)-4-(2-fluorobenzyl)-8-fluoro-4H-benzo[1,4]oxazine-2-carboxamide hydrochloride] | 2370 nM |  |
| COc1ccc(CN2C=C(C(=O)NCC(C)(C)O)Oc3ccccc32)cc1 [Example 6, N-(2-Hydroxy-2-methylpropyl)-4-(4-methoxybenzyl)-4H-benzo[1,4]oxazine-2-carboxamide] | 1510 nM |  |

The next lines start with results.

| EC50 [1] | Compound | other results |
| --- | --- | --- |
| 120 nM | O=C(N[C@H]1CCCC[C@@H]1O)C1=CN(Cc2ccc(F)c(F)c2)c2ccccc2O1 [Example 19, N-(cis-1S,2S-2-Hydroxycyclohexyl)-4-(3,4-difluorobenzyl)-4H-benzo[1,4]oxazine-2-carboxamide] | AUC0-t ([2]; 1 mg/kg i.v. (bolus)): 1240 ± 84 ng·h/mL; AUC0-t ([2]; 3 mg/kg oral (gavage)): 2490 ± 223 ng·h/mL; clearance ([2]; iv, 1 mg/kg i.v. (bolus)): 13 ± 1 mL/min/kg; half-life ([2]; iv, 1 mg/kg i.v. (bolus)): 228 ± 30 min; Vd ([2]; iv, 1 mg/kg i.v. (bolus)): 4.4 ± 0.2 L/kg; Cmax ([2]; 3 mg/kg oral (gavage)): 252 ± 17 ng/mL; Tmax ([2]; 3 mg/kg oral (gavage)): 1.67 ± 0.6 h; half-life ([2]; 3 mg/kg oral (gavage)): 222 ± 6 min; bioavailability [2]: 67 ± 6% |
| 1150 nM | O=C(N[C@H]1CCCC[C@@H]1O)C1=CN(Cc2ccccc2F)c2ncccc2O1 [Example 3, N-(cis-1S,2S-2-Hydroxycyclohexyl)-4-{2-fluorobenzyl}-4H-pyrido[3,2-b][1,4]oxazine-2-carboxamide] |  |
| 1350 nM | O=C(N[C@H]1CCCC[C@@H]1O)C1=CN(Cc2ccnc(-c3ccccc3)c2)c2ccccc2O1 [Example 52, N-(cis-1S,2S-2-Hydroxycyclohexyl)-4-(2-phenylpyridin-4-ylmethyl)-4H-benzo[1,4]oxazine-2-carboxamide] |  |
| 955 nM | O=C(N[C@H]1CCCC[C@@H]1O)C1=CN(Cc2ccccc2)c2ncccc2O1 [Example 30, N-(cis-1S, 2S-2-Hydroxycyclohexyl)-4-benzyl-4H-pyrido[3,2-b][1,4]oxazine-2-carboxamide] |  |
| 591 nM | COc1ccc(CN2C=C(C(=O)N[C@H]3CCCC[C@@H]3O)Oc3ccccc32)cn1 [Example 15, N-(cis-1S,2S-2-Hydroxycyclohexyl)-4-(2-methoxypyridin-5-ylmethyl)-4H-benzo[1,4]oxazine-2-carboxamide] |  |
| 117 nM | O=C(N[C@H]1CCCC[C@@H]1O)C1=CN(Cc2cccc(F)c2F)c2ccccc2S1 [Example 85, N-(cis-1S,2S-2-Hydroxycyclohexyl)-4-(2,3-difluorobenzyl)-4H-benzo[1,4]thiazine-2-carboxamide] |  |
| 262 nM | O=C(N[C@H]1CCCC[C@@H]1O)C1=CN(Cc2ccccc2Cl)c2cccc(F)c2O1 [Example 38, N-(cis-1S, 2S-2-Hydroxycyclohexyl)-4-(2-chlorobenzyl)-8-fluoro-4H-benzo[1,4]oxazine-2-carboxamide] |  |
| 179 nM | O=C(N[C@H]1CCCC[C@@H]1O)C1=CN(Cc2ccncc2)c2cccc(F)c2O1 [Example 57, N-(cis-1S,2S-2-Hydroxycyclohexyl)-4-(pyridin-4-ylmethyl)-8-fluoro-4H-benzo[1,4]oxazine-2-carboxamide] |  |
| 353 nM | O=C(N[C@H]1CCCC[C@@H]1O)C1=CN(Cc2cccnc2)c2ccccc2O1 [Example 22, N-(cis-1S,2S-2-Hydroxycyclohexyl)-4-(pyridin-3-ylmethyl)-4H-benzo[1,4]oxazine-2-carboxamide] |  |
| 141 nM | O=C(N[C@H]1CCCC[C@@H]1O)C1=CN(Cc2ccc(Cl)nc2)c2ccccc2S1 [Example 91, N-(cis-1S,2S-2-Hydroxycyclohexyl)-4-{2-chloropyridin-5-ylmethyl}-4H-benzo[1,4]thiazine-2-carboxamide] |  |
| 160 nM | O=C(NC1CCNCC1O)C1=CN(Cc2cccc(F)c2F)c2cccc(F)c2O1 (stereo not shown) [Example 75, N-(3-Hydroxypiperidin-4-yl)-4-(2,3-difluorobenzyl)-8-fluoro-4H-benzo[1,4]oxazine-2-carboxamide trifluoroacetate] |  |
| 131 nM | O=C(N[C@H]1CCCC[C@@H]1O)C1=CN(Cc2ccccc2)c2ccccc2S1 [Example 87, N-(cis-1S,2S-2-Hydroxycyclohexyl)-4-benzyl-4H-benzo[1,4]thiazine-2-carboxamide] |  |
